Data from PMC9571063 (Molecules, 2022).

Experiments:
[1] = molecular target: T1, TRKB (Homo sapiens, UniProt Q16620); test: KINOMEscan; format: binding; settings: read-out: Percent Control
T1 construct: purchased Eurofins DiscoverX KINOMEscan (scanMAX 468)

[2] = molecular target: T2, ULK3 (Homo sapiens, UniProt Q6PHR2); test: KINOMEscan; format: binding; settings: read-out: Percent Control
T2 construct: purchased Eurofins DiscoverX KINOMEscan (scanMAX 468)

[3] = molecular target: T3, EPHB4 (Homo sapiens, UniProt P54760); test: KINOMEscan; format: binding; settings: read-out: Percent Control
T3 construct: purchased Eurofins DiscoverX KINOMEscan (scanMAX 468)

[4] = molecular target: T4, HIPK4 (Homo sapiens, UniProt Q8NE63); test: KINOMEscan; format: binding; settings: read-out: Percent Control
T4 construct: purchased Eurofins DiscoverX KINOMEscan (scanMAX 468)

[5] = molecular target: T5, TIE2 (Homo sapiens, UniProt Q02763); test: KINOMEscan; format: binding; settings: read-out: Percent Control
T5 construct: purchased Eurofins DiscoverX KINOMEscan (scanMAX 468)

[6] = molecular target: T6, MAP3K1 (Homo sapiens, UniProt Q13233); test: KINOMEscan; format: binding; settings: read-out: Percent Control
T6 construct: purchased Eurofins DiscoverX KINOMEscan (scanMAX 468)

[7] = molecular target: T7, PRKCQ (Homo sapiens, UniProt Q04759); test: KINOMEscan; format: binding; settings: read-out: Percent Control
T7 construct: purchased Eurofins DiscoverX KINOMEscan (scanMAX 468)

[8] = molecular target: T8, VRK2 (Homo sapiens, UniProt Q86Y07); test: KINOMEscan; format: binding; settings: read-out: Percent Control
T8 construct: purchased Eurofins DiscoverX KINOMEscan (scanMAX 468)

[9] = molecular target: T9, CSNK1G3 (Homo sapiens, UniProt Q9Y6M4); test: KINOMEscan; format: binding; settings: read-out: Percent Control
T9 construct: purchased Eurofins DiscoverX KINOMEscan (scanMAX 468)

[10] = molecular target: T10, CAMK2A (Homo sapiens, UniProt Q9UQM7); test: KINOMEscan; format: binding; settings: read-out: Percent Control
T10 construct: purchased Eurofins DiscoverX KINOMEscan (scanMAX 468)

[11] = molecular target: T11, TSSK1B (Homo sapiens, UniProt Q9BXA7); test: KINOMEscan; format: binding; settings: read-out: Percent Control
T11 construct: purchased Eurofins DiscoverX KINOMEscan (scanMAX 468)

[12] = molecular target: T12, PRKCD (Homo sapiens, UniProt Q05655); test: KINOMEscan; format: binding; settings: read-out: Percent Control
T12 construct: purchased Eurofins DiscoverX KINOMEscan (scanMAX 468)

[13] = molecular target: T13, ABL1(E255K)-phosphorylated (Homo sapiens, UniProt P00519, E255K); test: KINOMEscan; format: binding; settings: read-out: Percent Control
T13 construct: purchased Eurofins DiscoverX KINOMEscan (scanMAX 468)

[14] = molecular target: T14, PDGFRA (Homo sapiens, UniProt P16234); test: KINOMEscan; format: binding; settings: read-out: Percent Control
T14 construct: purchased Eurofins DiscoverX KINOMEscan (scanMAX 468)

[15] = molecular target: T15, IRAK3 (Homo sapiens, UniProt Q9Y616); test: KINOMEscan; format: binding; settings: read-out: Percent Control
T15 construct: purchased Eurofins DiscoverX KINOMEscan (scanMAX 468)

[16] = molecular target: T16, PIK3CA(H1047Y) (Homo sapiens, UniProt P42336, H1047Y); test: KINOMEscan; format: binding; settings: read-out: Percent Control
T16 construct: purchased Eurofins DiscoverX KINOMEscan (scanMAX 468)

[17] = molecular target: T17, DAPK1 (Homo sapiens, UniProt P53355); test: KINOMEscan; format: binding; settings: read-out: Percent Control
T17 construct: purchased Eurofins DiscoverX KINOMEscan (scanMAX 468)

[18] = tested on: Caco2; parameters: method as in ref 14 (a number printed in a supplementary file, which may have a reference list of its own: not looked up in the article's list); settings: DB18[a], footnote not given; read-out: Cytotoxic studies IC50 Caco2; cited from earlier work
[19] = molecular target: T18, LTK (Homo sapiens, UniProt P29376); test: KINOMEscan; format: binding; settings: read-out: Percent Control
T18 construct: purchased Eurofins DiscoverX KINOMEscan (scanMAX 468)

[20] = molecular target: T19, BRAF (Homo sapiens, UniProt P15056); test: KINOMEscan; format: binding; settings: read-out: Percent Control
T19 construct: purchased Eurofins DiscoverX KINOMEscan (scanMAX 468)

[21] = molecular target: T20, JNK3 (Homo sapiens, UniProt P53779); test: KINOMEscan; format: binding; settings: read-out: Percent Control
T20 construct: purchased Eurofins DiscoverX KINOMEscan (scanMAX 468)

[22] = molecular target: T21, PKMYT1 (Homo sapiens, UniProt Q99640); test: KINOMEscan; format: binding; settings: read-out: Percent Control
T21 construct: purchased Eurofins DiscoverX KINOMEscan (scanMAX 468)

[23] = molecular target: T22, PIK3C2B (Homo sapiens, UniProt O00750); test: KINOMEscan; format: binding; settings: read-out: Percent Control
T22 construct: purchased Eurofins DiscoverX KINOMEscan (scanMAX 468)

[24] = molecular target: T23, SIK (Homo sapiens, UniProt P57059); test: KINOMEscan; format: binding; settings: read-out: Percent Control
T23 construct: purchased Eurofins DiscoverX KINOMEscan (scanMAX 468)

[25] = molecular target: T24, CSNK1A1 (Homo sapiens, UniProt P48729); test: KINOMEscan; format: binding; settings: read-out: Percent Control
T24 construct: purchased Eurofins DiscoverX KINOMEscan (scanMAX 468)

[26] = molecular target: T25, TRPM6 (Homo sapiens, UniProt Q9BX84); test: KINOMEscan; format: binding; settings: read-out: Percent Control
T25 construct: purchased Eurofins DiscoverX KINOMEscan (scanMAX 468)

[27] = molecular target: T26, CSNK1D (Homo sapiens, UniProt P48730); test: KINOMEscan; format: binding; settings: read-out: Percent Control
T26 construct: purchased Eurofins DiscoverX KINOMEscan (scanMAX 468)

[28] = molecular target: T27, CDK11 (Homo sapiens, UniProt Q9BWU1); test: KINOMEscan; format: binding; settings: read-out: Percent Control
T27 construct: purchased Eurofins DiscoverX KINOMEscan (scanMAX 468)

[29] = molecular target: T28, KIT(L576P) (Homo sapiens, UniProt P10721, L576P); test: KINOMEscan; format: binding; settings: read-out: Percent Control
T28 construct: purchased Eurofins DiscoverX KINOMEscan (scanMAX 468)

[30] = molecular target: T29, ACVR1B (Homo sapiens, UniProt P36896); test: KINOMEscan; format: binding; settings: read-out: Percent Control
T29 construct: purchased Eurofins DiscoverX KINOMEscan (scanMAX 468)

[31] = molecular target: T30, PIK3CG (Homo sapiens, UniProt P48736); test: KINOMEscan; format: binding; settings: read-out: Percent Control
T30 construct: purchased Eurofins DiscoverX KINOMEscan (scanMAX 468)

[32] = molecular target: T31, EPHB3 (Homo sapiens, UniProt P54753); test: KINOMEscan; format: binding; settings: read-out: Percent Control
T31 construct: purchased Eurofins DiscoverX KINOMEscan (scanMAX 468)

[33] = molecular target: T32, ZAK (Homo sapiens, UniProt Q9NYL2); test: KINOMEscan; format: binding; settings: read-out: Percent Control
T32 construct: purchased Eurofins (KINOMEscan, DiscoverX)

[34] = molecular target: T33, MEK4 (Homo sapiens, UniProt P45985); test: KINOMEscan; format: binding; settings: read-out: Percent Control
T33 construct: purchased Eurofins DiscoverX KINOMEscan (scanMAX 468)

[35] = molecular target: T34, PAK6 (Homo sapiens, UniProt Q9NQU5); test: KINOMEscan; format: binding; settings: read-out: Percent Control
T34 construct: purchased Eurofins DiscoverX KINOMEscan (scanMAX 468)

[36] = molecular target: T35, ACVR1 (Homo sapiens, UniProt Q04771); test: KINOMEscan; format: binding; settings: read-out: Percent Control
T35 construct: purchased Eurofins DiscoverX KINOMEscan (scanMAX 468)

[37] = molecular target: T36, TRKA (Homo sapiens, UniProt P04629); test: KINOMEscan; format: binding; settings: read-out: Percent Control
T36 construct: purchased Eurofins DiscoverX KINOMEscan (scanMAX 468)

[38] = molecular target: T37, RAF1 (Homo sapiens, UniProt P04049); test: KINOMEscan; format: binding; settings: read-out: Percent Control
T37 construct: purchased Eurofins DiscoverX KINOMEscan (scanMAX 468)

[39] = molecular target: T38, FGR (Homo sapiens, UniProt P09769); test: KINOMEscan; format: binding; settings: read-out: Percent Control
T38 construct: purchased Eurofins DiscoverX KINOMEscan (scanMAX 468)

[40] = molecular target: T39, PAK2 (Homo sapiens, UniProt Q13177); test: KINOMEscan; format: binding; settings: read-out: Percent Control
T39 construct: purchased Eurofins DiscoverX KINOMEscan (scanMAX 468)

[41] = molecular target: T40, IRAK1 (Homo sapiens, UniProt P51617); test: KINOMEscan; format: binding; settings: read-out: Percent Control
T40 construct: purchased Eurofins DiscoverX KINOMEscan (scanMAX 468)

[42] = molecular target: T41, ABL1(T315I)-phosphorylated (Homo sapiens, UniProt P00519, T315I); test: KINOMEscan; format: binding; settings: read-out: Percent Control
T41 construct: purchased Eurofins DiscoverX KINOMEscan (scanMAX 468)

[43] = molecular target: T42, OSR1 (Homo sapiens, UniProt O95747); test: KINOMEscan; format: binding; settings: read-out: Percent Control
T42 construct: purchased Eurofins DiscoverX KINOMEscan (scanMAX 468)

T5 sequence (Q02763 23-1124): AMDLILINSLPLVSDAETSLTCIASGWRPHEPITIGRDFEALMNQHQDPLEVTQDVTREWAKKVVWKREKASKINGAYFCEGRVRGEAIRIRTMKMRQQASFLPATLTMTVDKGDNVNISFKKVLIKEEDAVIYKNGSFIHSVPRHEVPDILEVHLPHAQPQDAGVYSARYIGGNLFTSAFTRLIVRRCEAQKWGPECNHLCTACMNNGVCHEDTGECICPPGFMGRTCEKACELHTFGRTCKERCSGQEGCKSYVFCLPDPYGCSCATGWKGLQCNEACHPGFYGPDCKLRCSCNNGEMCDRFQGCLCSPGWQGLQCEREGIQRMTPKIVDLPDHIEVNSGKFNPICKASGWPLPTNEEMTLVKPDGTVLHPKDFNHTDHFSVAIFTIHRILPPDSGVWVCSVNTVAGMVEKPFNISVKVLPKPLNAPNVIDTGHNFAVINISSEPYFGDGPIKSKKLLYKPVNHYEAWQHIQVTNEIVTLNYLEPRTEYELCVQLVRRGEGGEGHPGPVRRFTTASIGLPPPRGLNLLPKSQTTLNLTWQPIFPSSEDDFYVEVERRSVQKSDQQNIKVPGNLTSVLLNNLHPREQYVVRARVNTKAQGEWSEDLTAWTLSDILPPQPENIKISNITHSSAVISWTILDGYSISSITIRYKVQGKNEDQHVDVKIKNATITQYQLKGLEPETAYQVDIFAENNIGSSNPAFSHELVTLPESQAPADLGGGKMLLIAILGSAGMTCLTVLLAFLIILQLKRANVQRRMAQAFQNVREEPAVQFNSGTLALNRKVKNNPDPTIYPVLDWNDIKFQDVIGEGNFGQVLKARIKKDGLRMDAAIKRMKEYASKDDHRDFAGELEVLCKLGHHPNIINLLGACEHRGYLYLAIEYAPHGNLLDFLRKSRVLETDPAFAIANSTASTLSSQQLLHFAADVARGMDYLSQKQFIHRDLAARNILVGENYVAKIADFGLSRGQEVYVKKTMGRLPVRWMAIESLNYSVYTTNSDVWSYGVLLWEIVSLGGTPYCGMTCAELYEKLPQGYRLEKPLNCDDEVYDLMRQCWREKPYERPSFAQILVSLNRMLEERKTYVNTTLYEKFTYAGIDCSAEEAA
T17 sequence (P53355 whole entry): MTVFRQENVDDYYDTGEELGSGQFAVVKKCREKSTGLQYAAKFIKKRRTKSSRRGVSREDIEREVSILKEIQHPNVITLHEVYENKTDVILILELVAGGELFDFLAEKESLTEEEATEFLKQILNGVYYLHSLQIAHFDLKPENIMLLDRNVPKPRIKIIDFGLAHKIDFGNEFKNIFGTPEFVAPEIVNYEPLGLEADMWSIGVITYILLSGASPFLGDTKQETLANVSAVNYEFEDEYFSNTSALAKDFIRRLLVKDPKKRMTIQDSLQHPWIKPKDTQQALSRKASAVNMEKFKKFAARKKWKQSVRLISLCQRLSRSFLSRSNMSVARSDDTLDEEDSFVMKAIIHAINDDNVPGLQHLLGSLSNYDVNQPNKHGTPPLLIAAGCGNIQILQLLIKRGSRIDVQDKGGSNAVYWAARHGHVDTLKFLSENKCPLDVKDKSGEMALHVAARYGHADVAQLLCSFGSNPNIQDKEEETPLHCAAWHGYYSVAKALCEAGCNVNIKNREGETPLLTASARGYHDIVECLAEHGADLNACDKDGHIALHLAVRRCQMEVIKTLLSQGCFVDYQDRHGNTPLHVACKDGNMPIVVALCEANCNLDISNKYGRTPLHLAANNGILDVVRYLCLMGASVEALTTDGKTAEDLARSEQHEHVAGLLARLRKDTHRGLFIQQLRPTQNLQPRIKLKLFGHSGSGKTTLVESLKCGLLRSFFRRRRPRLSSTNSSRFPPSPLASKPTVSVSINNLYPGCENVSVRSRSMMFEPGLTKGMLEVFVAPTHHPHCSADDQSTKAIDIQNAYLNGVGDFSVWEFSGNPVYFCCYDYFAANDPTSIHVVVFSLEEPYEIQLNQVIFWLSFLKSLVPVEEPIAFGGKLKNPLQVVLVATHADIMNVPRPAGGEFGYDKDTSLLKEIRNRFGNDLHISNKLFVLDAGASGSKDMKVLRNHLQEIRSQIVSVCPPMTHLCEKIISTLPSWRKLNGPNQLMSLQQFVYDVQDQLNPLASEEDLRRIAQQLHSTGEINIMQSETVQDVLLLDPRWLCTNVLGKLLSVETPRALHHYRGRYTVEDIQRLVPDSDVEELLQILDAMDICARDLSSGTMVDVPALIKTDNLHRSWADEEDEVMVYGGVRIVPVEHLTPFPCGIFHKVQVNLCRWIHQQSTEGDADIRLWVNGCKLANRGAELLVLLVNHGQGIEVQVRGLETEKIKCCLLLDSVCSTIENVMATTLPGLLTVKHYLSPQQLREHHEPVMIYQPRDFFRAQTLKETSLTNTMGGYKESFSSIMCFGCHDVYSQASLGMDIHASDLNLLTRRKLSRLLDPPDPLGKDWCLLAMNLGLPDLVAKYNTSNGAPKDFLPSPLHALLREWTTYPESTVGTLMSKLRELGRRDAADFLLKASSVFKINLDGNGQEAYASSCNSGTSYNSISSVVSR
T35 sequence (Q04771 21-509): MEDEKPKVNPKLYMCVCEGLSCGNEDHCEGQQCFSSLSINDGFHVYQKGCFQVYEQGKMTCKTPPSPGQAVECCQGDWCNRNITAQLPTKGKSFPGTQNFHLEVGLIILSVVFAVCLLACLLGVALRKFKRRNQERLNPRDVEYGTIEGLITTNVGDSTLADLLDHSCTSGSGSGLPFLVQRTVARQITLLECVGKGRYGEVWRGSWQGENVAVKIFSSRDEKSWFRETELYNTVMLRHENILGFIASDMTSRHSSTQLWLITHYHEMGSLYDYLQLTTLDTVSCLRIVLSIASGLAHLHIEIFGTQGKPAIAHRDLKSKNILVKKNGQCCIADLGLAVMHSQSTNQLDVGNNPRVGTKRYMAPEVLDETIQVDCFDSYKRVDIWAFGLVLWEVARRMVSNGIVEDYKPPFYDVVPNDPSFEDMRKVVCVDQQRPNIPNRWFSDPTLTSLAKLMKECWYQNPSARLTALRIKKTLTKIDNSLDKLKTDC
T6 sequence (Q13233 whole entry): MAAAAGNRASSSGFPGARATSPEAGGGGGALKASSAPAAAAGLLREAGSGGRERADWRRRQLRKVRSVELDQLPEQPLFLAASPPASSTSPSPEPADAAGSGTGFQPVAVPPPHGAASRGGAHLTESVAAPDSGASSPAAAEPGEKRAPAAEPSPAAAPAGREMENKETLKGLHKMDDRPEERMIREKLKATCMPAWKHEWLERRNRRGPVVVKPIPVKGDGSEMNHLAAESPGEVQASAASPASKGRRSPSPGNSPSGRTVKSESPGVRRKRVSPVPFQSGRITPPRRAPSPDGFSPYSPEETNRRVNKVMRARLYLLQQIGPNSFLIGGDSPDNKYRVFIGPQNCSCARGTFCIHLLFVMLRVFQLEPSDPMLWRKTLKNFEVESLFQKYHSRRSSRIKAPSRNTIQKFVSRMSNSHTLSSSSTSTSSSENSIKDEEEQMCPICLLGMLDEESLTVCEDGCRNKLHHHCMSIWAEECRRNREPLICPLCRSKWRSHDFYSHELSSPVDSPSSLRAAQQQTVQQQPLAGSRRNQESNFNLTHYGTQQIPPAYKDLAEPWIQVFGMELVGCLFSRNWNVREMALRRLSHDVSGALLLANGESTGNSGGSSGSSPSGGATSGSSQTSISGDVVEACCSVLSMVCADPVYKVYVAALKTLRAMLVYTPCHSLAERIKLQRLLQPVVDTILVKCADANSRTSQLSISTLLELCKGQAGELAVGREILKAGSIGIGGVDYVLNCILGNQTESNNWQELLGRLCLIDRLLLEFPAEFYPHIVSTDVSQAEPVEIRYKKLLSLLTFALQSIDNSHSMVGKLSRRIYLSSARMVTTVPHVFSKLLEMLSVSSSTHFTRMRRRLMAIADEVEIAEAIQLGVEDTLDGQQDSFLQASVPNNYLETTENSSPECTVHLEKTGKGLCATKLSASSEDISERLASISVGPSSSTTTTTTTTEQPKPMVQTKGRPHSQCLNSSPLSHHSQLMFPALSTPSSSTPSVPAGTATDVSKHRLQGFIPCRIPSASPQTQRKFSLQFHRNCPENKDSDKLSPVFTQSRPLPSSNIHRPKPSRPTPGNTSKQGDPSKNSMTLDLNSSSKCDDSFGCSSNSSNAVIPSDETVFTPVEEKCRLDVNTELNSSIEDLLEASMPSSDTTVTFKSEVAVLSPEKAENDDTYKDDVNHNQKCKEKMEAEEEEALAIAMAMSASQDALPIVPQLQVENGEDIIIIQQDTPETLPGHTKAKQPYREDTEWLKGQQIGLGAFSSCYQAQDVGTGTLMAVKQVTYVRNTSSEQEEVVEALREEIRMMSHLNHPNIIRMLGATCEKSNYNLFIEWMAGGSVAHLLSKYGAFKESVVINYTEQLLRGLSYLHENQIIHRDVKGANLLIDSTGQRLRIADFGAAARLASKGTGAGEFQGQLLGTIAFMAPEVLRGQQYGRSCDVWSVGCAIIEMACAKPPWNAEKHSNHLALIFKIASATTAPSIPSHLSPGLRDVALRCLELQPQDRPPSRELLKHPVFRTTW
T26 sequence (P48730 whole entry): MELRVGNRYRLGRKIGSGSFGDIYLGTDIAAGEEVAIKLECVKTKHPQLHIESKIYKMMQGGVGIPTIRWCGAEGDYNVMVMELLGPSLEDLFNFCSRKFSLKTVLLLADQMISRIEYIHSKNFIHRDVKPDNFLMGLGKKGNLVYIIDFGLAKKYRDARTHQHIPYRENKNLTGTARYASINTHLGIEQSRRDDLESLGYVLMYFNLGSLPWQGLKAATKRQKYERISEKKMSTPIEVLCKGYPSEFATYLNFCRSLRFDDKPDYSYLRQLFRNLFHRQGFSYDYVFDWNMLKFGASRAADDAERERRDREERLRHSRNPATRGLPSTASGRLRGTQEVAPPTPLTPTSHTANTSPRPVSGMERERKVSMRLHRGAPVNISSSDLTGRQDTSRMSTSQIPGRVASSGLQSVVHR

Cc1ccc(-n2cc(COc3cccc4cnc(Nc5cccc(Cl)c5)nc34)nn2)c([N+](=O)[O-])c1 [DB18]
remaining binding at 1 µM [1]: 86% | remaining binding at 1 µM [2]: 100% | remaining binding at 1 µM [3]: 100% | remaining binding at 1 µM [4]: 17% | remaining binding at 1 µM [5]: 100% | remaining binding at 1 µM [6]: 98% | remaining binding at 1 µM [7]: 100% | remaining binding at 1 µM [8]: 100% | remaining binding at 1 µM [9]: 100% | remaining binding at 1 µM [10]: 96% | remaining binding at 1 µM [11]: 100% | remaining binding at 1 µM [12]: 100% | remaining binding at 1 µM [13]: 97% | remaining binding at 1 µM [14]: 100% | remaining binding at 1 µM [15]: 59% | remaining binding at 1 µM [16]: 96% | remaining binding at 1 µM [17]: 100% | IC50 [18]: 37 µM | remaining binding at 1 µM [19]: 80% | remaining binding at 1 µM [20]: 93% | remaining binding at 1 µM [21]: 95% | remaining binding at 1 µM [22]: 62% | remaining binding at 1 µM [23]: 100% | remaining binding at 1 µM [24]: 95% | remaining binding at 1 µM [25]: 94% | remaining binding at 1 µM [26]: 91% | remaining binding at 1 µM [27]: 100% | remaining binding at 1 µM [28]: 100% | remaining binding at 1 µM [29]: 100% | remaining binding at 1 µM [30]: 88% | remaining binding at 1 µM [31]: 62% | remaining binding at 1 µM [32]: 100% | remaining binding at 1 µM [33]: 97% | remaining binding at 1 µM [34]: 100% | remaining binding at 1 µM [35]: 100% | remaining binding at 1 µM [36]: 100% | remaining binding at 1 µM [37]: 8.9% | remaining binding at 1 µM [38]: 100% | remaining binding at 1 µM [39]: 96% | remaining binding at 1 µM [40]: 100% | remaining binding at 1 µM [41]: 100% | remaining binding at 1 µM [42]: 100% | remaining binding at 1 µM [43]: 100%
